Experimental data from US9980972B2, “Rho kinase inhibitors for use in treating familial amyotrophic lateral sclerosis” (GEORG-AUGUST-UNIVERSITÄT GÖTTINGEN STIFTUNG ÖFFENTLICHEN …, priority 2012, dated 2018).

Legend:
[1] = system: SOD1 wt and SOD1G93A microglia; assay: LPS-triggered cytokine/chemokine release of primary microglia (ELISA); format: cell-based, mouse; conditions: 18 hours; for proinflammatory cytokine release: SOD1 wt and SOD1G93A microglia
Protocol: Primary cell cultures were prepared from whole brains of newborn (PO) mice and cultured in complete Dulbecco's modified Eagle's medium (DMEM, Invitrogen/Gibco, Karlsruhe, Germany), supplemented with 10% fetal calf serum (FCS, Invitrogen/Gibco), 100 U/ml penicillin and 100 μg/ml streptomycin (both Biochrom, Berlin, Germany) as previously described (Regen, et al. (2011) Brain, Behavior, and Immunity 25(5): 957-970). In brief, brains of newborn B6/SJL SOD1G93A and from B6/SJL SOD1wt, respectively, were liberated from meninges and blood vessels, washed with Hank's balanced salt solution (HBSS; Biochrom) and incubated with 2.5% trypsin (Biochrom) for 10 min at 37° C. The enzymatic reaction was stopped by addition of complete medium, supplemented with DNAse [5 mg/ml] (Worthington Biochemicals, Lakewood, N.J., USA). Remaining cell clusters were mechanically separated and the suspension was centrifuged at 900 rpm at 4° C. for 10 min. The supernatant was removed, cells were resuspended in fresh complete medium and seeded in 75 cm2, poly-L-lysine (PLL)-coated culture flasks. Immediately before being used, flasks were incubated with 100 μg/ml PLL (Invitrogen/Gibco) for 30 min at RT and excess of PLL was washed off by three rinses with sterile ddH2O. Subsequently, cultures were maintained in a humidified atmosphere with 5% CO2 at 37° C. On the next day, primary mixed-glial cultures were washed three times (PBS, Invitrogen/Gibco) and received fresh complete medium, the latter being repeated the following day. One week after seeding, microglial proliferation was stimulated by adding complete medium supplemented with 30% of L929-conditioned cell culture supernatant (see section “L929 Mouse Fibroblast Cultures” below). After another two days, microglial cells were harvested by shaking them off the astrocytic layer, taking advantage of their different adhesion properties. After washing with complete medium and counting, cells were plated in 96-well plates at a density of 15,000 cells/well for ELISA or were plated in 24-well plates at a density of 50,000 cells/well on PLL-coated coverslips for later immunocytochemical processing.
Primary cultures underwent five different general treatments: (a) Cells were left untreated in medium serving as controls. (b) Cells were stimulated with the TLR4 ligand LPS (E. coli R515; Axxora/Appotech TLR ligand set 1, APO.54N-018) for 18 hours at a final concentration of 10 ng/ml. (c) Cells underwent a treatment with Fasudil at 2 μM, 10 μM or 50 μM, respectively, for 18 hours. (d) Cells were stimulated with LPS, as described above, in the presence of various concentrations of Fasudil. (e) Cells were preincubated for 1 h, 4 h or 12 h, respectively with Fasudil at 50 μM, prior to a LPS challenge in the continued presence of Fasudil at 50 μM. Stimulation experiments were routinely carried out twice.
Following microglial stimulations and treatments, culture supernatants were collected and stored at −20° C. until assayed. Supernatants were analyzed for the release of cyto- and chemokines by commercial enzyme-linked immunosorbent assay (ELISA) test systems. Levels of IL-6, CCL2 (monocyte chemoattractant protein, MCP-1), CCL3 (macrophage inflammatory protein, MIP-1α) and CCL5 (regulated upon activation normal T-cell expressed and presumably secreted, RANTES) and CXCL1 (Chemokine (C-X-C motif) ligand 1) were determined using DuoSet ELISA Development Kits (R&D Systems). TNFα (tumor necrosis factor α) was determined using MAXTM ELISA kit (Biolegend). Absorbance was measured at 450 nm (with a 540 nm reference wavelength) using a microplate reader (Bio-Rad).

[2] = system: spinal cord microglia of SOD1 G93A mice; assay: Microglia morphology subclassification in lumbar spinal cord; format: in vivo, mouse
Text: For the evaluation of microglia morphology at least 10 randomly chosen cells per ventral horn were examined with a 63× objective. Cells were classified as “thin ramified”, “stouter ramified” and “rounded” according to a recent morphologic description by Graeber et al. (Graeber, M. B. (2010) Science 330(6005): 783-788). A ramified cell was defined as a cell that has at least 2 processes that are at least twice the size of cell body. Thin ramified cells were defined to have a small diameter of ramifications (<0.5 μm) and a small cell soma diameter (<5 μm). Stoutly ramified cells were defined with thicker ramifications (>0.5 μm) and a larger cell soma diameter (>5 μm).
In order to further characterize the differential microglial behaviour in the treatment groups at d100, we performed a morphologic subclassification of microglial cells, as described above under the heading “Quantitative evaluation of spinal cord motoneurons and astroglia, sciatic nerve axons and NMJ”. […] The latter two morphologic cell types are considered to reflect a state of enhanced microglial activation in comparison to a surveillance type which is characterized by smaller cell bodies and thin ramified processes (exemplary microscopic images are shown in FIG. 21 C).

[3] = system: mono-cultures of primary motoneurons; assay: Kainic acid toxicity in motoneuron mono-culture; format: cell-based
[4] = system: SOD1 G93A mouse model of ALS; assay: Rotarod test (motor coordination), time to failure of 180 s; format: in vivo
Text: From a patient's point of view overall survival is not the only parameter of a successful therapy. Many recent therapeutic studies in humans rather evaluate an increased time with improved quality of life. An improved motor function could be one parameter that is relevant for the quality of daily life and therefore the inventors chose two different tests to monitor motor function in the present animal model. The rotarod test evaluates fine motor coordination and is a very sensitive test for the ability to move on an unstable underground. Evaluating motor coordination by subjecting the animals to the rotarod test, the presymptomatic female treatment group failed later in the task to reach a total running time of 180 s (122.5 days) in comparison to the vehicle-treated group (114.2 days).

[5] = LPS 10 ng/ml + Fasudil 50 μM, both genotypes

SMILES: O=S(=O)(c1cccc2cnccc12)N1CCCNCC1 [Fasudil, 1-(5-isoquinolinesulfonyl)homopiperazine]
- proinflammatory cytokine release ([1]; LPS 10 ng/ml + Fasudil 2 μM): not efficient in significantly reducing
- proinflammatory cytokine release ([1]; LPS 10 ng/ml + Fasudil 10 μM): not efficient in significantly reducing
- release of CCL3 [1, 5]: markedly reduced
- release of CXCL1 [1, 5]: markedly reduced
- release of IL-6 [1, 5]: markedly reduced
- release of RANTES [1, 5]: markedly reduced
- release of TNFα [1, 5]: markedly reduced
- change of CCL2 release ([1]; LPS 10 ng/ml + Fasudil 50 μM, relative to LPS alone (100%), slightly increased/unaffected): +8.9%
- rounded microglia ([2]; d100, Fasudil 30, vehicle SOD1G93A 0.7±0.2%): 0.5±0.1%
- microglia with stout ramified processes ([2]; d100, Fasudil 30, vehicle SOD1G93A 46.7±6.3%): 70.8±5.3%
- microglia with thin ramifications ([2]; d100, Fasudil 30, vehicle SOD1G93A 52.6±6.3%): 28.7±5.3%
- microglial morphology ([2]; disease end-stage, all treatment groups): no gross alterations
- survival of KA exposed motoneurons [3]: effectively protecting
- rotarod performance ([4]; male, presymptomatic Fas30): slight non-significant trend to improved performance
- time to failure to reach 180 s rotarod running time ([4]; presymptomatic female treatment group, vehicle 114.2 days): 122.5 days
- rotarod performance ([4]; symptomatic treatment): not able to improve rotarod performances
